Reference: ChEMBL document CHEMBL1201862, “PubChem BioAssay data set” (2004)
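Assay format: 96-well plates, 48-hour exposure. Here, GI50 denotes the concentration required for 50% inhibition of growth.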 Active and inactive are the calls of the source. Rule as the data show it: active = GI50 up to about 1.1 µM and inactive = higher.

How the values were obtained:
Test in all cases: inhibition of tumour cell growth, NCI panel, 48 h
CAKI-1 = tested on: CAKI-1
A498 = tested on: A498
SK-MEL-5 = tested on: SK-MEL-5
SNB-19 = tested on: SNB-19
U-251 = tested on: U-251
NCI-H522 = tested on: NCI-H522
SF-295 = tested on: SF-295
786-0 = tested on: 786-0
HCC 2998 = tested on: HCC 2998
NCI-H460 = tested on: NCI-H460
OVCAR-4 = tested on: OVCAR-4
RPMI-8226 = tested on: RPMI-8226
HCT-116 = tested on: HCT-116
HT-29 = tested on: HT-29
OVCAR-5 = tested on: OVCAR-5
OVCAR-8 = tested on: OVCAR-8
UACC-257 = tested on: UACC-257
MCF7 = tested on: MCF7
NCI/ADR-RES = tested on: NCI/ADR-RES
IGROV-1 = tested on: IGROV-1

Structure (SMILES) | GI50 (CAKI-1) | GI50 (A498) | GI50 (SK-MEL-5) | GI50 (SNB-19) | GI50 (U-251) | GI50 (NCI-H522) | GI50 (SF-295) | GI50 (786-0) | GI50 (HCC 2998) | GI50 (NCI-H460) | GI50 (OVCAR-4) | GI50 (RPMI-8226) | GI50 (HCT-116) | GI50 (HT-29) | GI50 (OVCAR-5) | GI50 (OVCAR-8) | GI50 (UACC-257) | GI50 (MCF7) | GI50 (NCI/ADR-RES) | GI50 (IGROV-1)
O=c1c2cc(I)ccc2nc(S)n1Cc1ccccc1 | 1.92 µM (inactive) | 18.8 µM (inactive) | 6.17 µM (inactive) | 18.9 µM (inactive) | 18.4 µM (inactive) | 3.96 µM (inactive) | 9.02 µM (inactive) | 11.5 µM (inactive) | 17.1 µM (inactive) | 6.93 µM (inactive) | 9.71 µM (inactive) | 6.61 µM (inactive) | 9.14 µM (inactive) | 32.9 µM (inactive) | 43.1 µM (inactive) | 23.1 µM (inactive) | 11.7 µM (inactive) | 28.1 µM (inactive) | 18.5 µM (inactive) | 4.07 µM (inactive)
CSc1nc(Br)nc2ncn(C3CC(Oc4ccc(C)cc4)C(COc4ccc(C)cc4)O3)c12 (stereo not given) | 66.2 µM (inactive) | > 100 µM (inactive) | > 100 µM (inactive) | > 100 µM (inactive) | > 100 µM (inactive) | > 100 µM (inactive) | > 100 µM (inactive) | > 100 µM (inactive) | > 100 µM (inactive) | > 100 µM (inactive) | > 100 µM (inactive) | > 100 µM (inactive) | > 100 µM (inactive) | > 100 µM (inactive) | > 100 µM (inactive) | 80.7 µM (inactive) | > 100 µM (inactive) | > 100 µM (inactive) | > 100 µM (inactive) | > 100 µM (inactive)
O=c1[nH]c(=O)n(C2OC(CO)C(O)C2O)c2c1CCCC2 (stereo not given) | > 100 µM (inactive) | > 100 µM (inactive) | > 100 µM (inactive) | > 100 µM (inactive) | > 100 µM (inactive) | > 100 µM (inactive) | > 100 µM (inactive) | > 100 µM (inactive) | > 100 µM (inactive) | > 100 µM (inactive) | > 100 µM (inactive) | > 100 µM (inactive) | > 100 µM (inactive) | > 100 µM (inactive) | > 100 µM (inactive) | > 100 µM (inactive) | > 100 µM (inactive) | > 100 µM (inactive) | > 100 µM (inactive) | > 100 µM (inactive)
C=CC(O)(CBr)CCC(Br)C(=C)C (stereo not given) | > 10 µM (inactive) | > 10 µM (inactive) | > 10 µM (inactive) | > 10 µM (inactive) | > 10 µM (inactive) | > 10 µM (inactive) | > 10 µM (inactive) | > 10 µM (inactive) | > 10 µM (inactive) | > 10 µM (inactive) | > 10 µM (inactive) | > 10 µM (inactive) | > 10 µM (inactive) | > 10 µM (inactive) | > 10 µM (inactive) | > 10 µM (inactive) | > 10 µM (inactive) | > 10 µM (inactive) | > 10 µM (inactive) | > 10 µM (inactive)
COC(=O)[C@]12CC[C@H]3CN(S(=O)(=O)c4ccc(C)cc4)[C@H]([C@H]31)[C@H](c1ccco1)N2S(=O)(=O)c1ccc(C)cc1 | 38.1 µM (inactive) | 53.2 µM (inactive) | 37.2 µM (inactive) | > 100 µM (inactive) | 64.3 µM (inactive) | 29.9 µM (inactive) | 35.6 µM (inactive) | 59.7 µM (inactive) | 78.2 µM (inactive) | 35.8 µM (inactive) | 27.7 µM (inactive) | 20 µM (inactive) | 27.2 µM (inactive) | 38.8 µM (inactive) | > 100 µM (inactive) | 27.8 µM (inactive) | 28.6 µM (inactive) | 32.2 µM (inactive) | 29 µM (inactive) | 35.8 µM (inactive)
O=C[C@@H](CO)O[C@H](C=O)n1cnc2c(=O)nc[nH]c21 | 319 µM (inactive) | 673 µM (inactive) | 378 µM (inactive) | 638 µM (inactive) | 748 µM (inactive) | 146 µM (inactive) | 619 µM (inactive) | 607 µM (inactive) | 116 µM (inactive) | 603 µM (inactive) | 399 µM (inactive) | 131 µM (inactive) | 177 µM (inactive) | 486 µM (inactive) | 634 µM (inactive) | 404 µM (inactive) | 378 µM (inactive) | 91.2 µM (inactive) | 438 µM (inactive) | 188 µM (inactive)
C=C(COCO)C(C)=O | 2.5 µM (inactive) | 27.9 µM (inactive) | 17.5 µM (inactive) | > 66.8 µM (inactive) | 24.5 µM (inactive) | 2.14 µM (inactive) | > 75 µM (inactive) | 12 µM (inactive) | 27.9 µM (inactive) | 22 µM (inactive) | 17.9 µM (inactive) | 2.94 µM (inactive) | 13.5 µM (inactive) | 17.7 µM (inactive) | 20.5 µM (inactive) | 8.51 µM (inactive) | 15.3 µM (inactive) | 16.3 µM (inactive) | 22.4 µM (inactive) | 20.1 µM (inactive)
O=C(CCCN1CCC2(CC1)CC(c1ccccc1)OC2=O)c1ccc(F)cc1 (stereo not given) | 24.5 µM (inactive) | 24 µM (inactive) | 15 µM (inactive) | 39.2 µM (inactive) | 74.5 µM (inactive) | > 100 µM (inactive) | 25 µM (inactive) | 24.1 µM (inactive) | 23.4 µM (inactive) | 48.1 µM (inactive) | 37.9 µM (inactive) | 30.1 µM (inactive) | 33.8 µM (inactive) | 9.06 µM (inactive) | 45.9 µM (inactive) | > 100 µM (inactive) | 23.6 µM (inactive) | 35.2 µM (inactive) | 92 µM (inactive) | > 100 µM (inactive)
C=CCNC(=O)CN(CC(=O)O)C1CCCCC1N(CC(=O)O)CC(=O)O (stereo not given) | > 100 µM (inactive) | > 100 µM (inactive) | > 100 µM (inactive) | > 100 µM (inactive) | > 100 µM (inactive) | > 100 µM (inactive) | > 100 µM (inactive) | > 100 µM (inactive) | > 100 µM (inactive) | > 100 µM (inactive) | > 100 µM (inactive) | > 100 µM (inactive) | > 100 µM (inactive) | > 100 µM (inactive) | > 100 µM (inactive) | > 100 µM (inactive) | > 100 µM (inactive) | > 100 µM (inactive) | > 100 µM (inactive) | > 100 µM (inactive)
CN1CC[C@@]2(c3cccc(O)c3)CC(=O)/C(=C/c3ccccc3)[C@H]1C2.[O-][Cl+3]([O-])([O-])O | 1.64 µM (inactive) | 9.31 µM (inactive) | 17.8 µM (inactive) | 7.31 µM (inactive) | 2.59 µM (inactive) | 3.93 µM (inactive) | 11.3 µM (inactive) | 4.44 µM (inactive) | 10.4 µM (inactive) | 3.52 µM (inactive) | 7.94 µM (inactive) | 2.44 µM (inactive) | 3.37 µM (inactive) | 3.18 µM (inactive) | 14.3 µM (inactive) | 8.22 µM (inactive) | 16.1 µM (inactive) | 2.64 µM (inactive) | 3.85 µM (inactive) | 13.7 µM (inactive)
Cc1nc2ccc(NCCN(C)C)c3c(=O)c4cc(O)ccc4n1c23 | 0.25 µM (active) | 1.42 µM (inactive) | 1.73 µM (inactive) | 0.281 µM (active) | 0.352 µM (active) | 0.112 µM (active) | 1.04 µM (active) | 0.228 µM (active) | 0.252 µM (active) | 0.0291 µM (active) | 0.63 µM (active) | 1.19 µM (inactive) | 0.0873 µM (active) | 0.156 µM (active) | 1.42 µM (inactive) | 0.248 µM (active) | 3.56 µM (inactive) | 0.743 µM (active) | 1.27 µM (inactive) | 0.839 µM (active)
C[C@H]1C[C@H]2[C@@H]3CCC4=CC(=O)C=C[C@]4(C)C3=CC[C@]2(C)[C@@]1(O)C(=O)CO | > 100 µM (inactive) | 23.4 µM (inactive) | 83.4 µM (inactive) | > 100 µM (inactive) | > 100 µM (inactive) | 68.2 µM (inactive) | > 100 µM (inactive) | > 100 µM (inactive) | > 100 µM (inactive) | > 100 µM (inactive) | > 100 µM (inactive) | 37.2 µM (inactive) | > 100 µM (inactive) | > 100 µM (inactive) | > 100 µM (inactive) | > 100 µM (inactive) | > 100 µM (inactive) | > 100 µM (inactive) | > 100 µM (inactive) | > 100 µM (inactive)
COc1ccc(CCCNC(=O)c2cc(OC)c(OC)cc2CCO)cc1OC | > 100 µM (inactive) | > 100 µM (inactive) | > 100 µM (inactive) | > 100 µM (inactive) | > 100 µM (inactive) | > 100 µM (inactive) | > 100 µM (inactive) | > 100 µM (inactive) | > 100 µM (inactive) | > 100 µM (inactive) | > 100 µM (inactive) | > 100 µM (inactive) | > 100 µM (inactive) | > 100 µM (inactive) | > 100 µM (inactive) | > 100 µM (inactive) | > 100 µM (inactive) | > 100 µM (inactive) | > 100 µM (inactive) | > 100 µM (inactive)
O=c1oc2cc(O)ccc2cc1-c1nc2ccccc2o1 | 44 µM (inactive) | 29.2 µM (inactive) | 19.5 µM (inactive) | 29.1 µM (inactive) | 28.7 µM (inactive) | 17.1 µM (inactive) | 44.9 µM (inactive) | 30.5 µM (inactive) | 39.8 µM (inactive) | 30.5 µM (inactive) | 29.8 µM (inactive) | 24.3 µM (inactive) | 41.6 µM (inactive) | 33.7 µM (inactive) | > 100 µM (inactive) | 34.8 µM (inactive) | 43.4 µM (inactive) | 32.8 µM (inactive) | 36.4 µM (inactive) | 29.1 µM (inactive)
